PubChem BioAssay AID179 (DTP/NCI, 2004)
Activity calls are given as the source filed them.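 Rule for the calls: active = compounds giving half or more protection of infected cells from virus-caused growth loss, again on retest; inactive = the rest.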

Tested on: CEM cells HIV-1 protection, formazan growth assay
Assay: NCI AIDS Antiviral Assay
Conditions: for IC50: measured here: growth of uninfected CEM cells
In short: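 Soluble formazan readout of cell growth; CEM cells ± HIV-1; 5 drug concs. ≥50% protection → retest; ≥50% again = moderately active; reproducible 100% = confirmed active.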

| SMILES | EC50 | IC50 | outcome |
| --- | --- | --- | --- |
| CNc1ccccc1S(=O)(=O)c1ccccc1[N+](=O)[O-] | 3.55 µM | 47.9 µM | – |
| CN(NC(=O)c1ccc(Cl)cc1)C1=NCCCCN1 | > 200 µM | > 200 µM | – |
| O=S(c1ccc(Cl)cc1)S(=O)c1ccc(Cl)cc1 (stereo not given) | > 22.4 µM | 18.2 µM | – |
| CC1C(=O)C(C)C(c2cccs2)N(N=O)C1c1cccs1 (stereo not given) | > 58.9 µM | 37.2 µM | – |
| [Pt].c1ccc(P(CCP(CCP(c2ccccc2)c2ccccc2)CCP(c2ccccc2)c2ccccc2)c2ccccc2)cc1 | > 5.62 µM | 2.95 µM | – |
| C/C1=C/COC(=O)CC/C(C)=C/CC1 | – | – | inactive |
| CSS(=O)(=O)C(c1ccccc1)c1ccccc1 | > 112 µM | 49 µM | – |
| CC1CCC2(C(=O)O)CCC3(C)C(=CCC4C5(C)CCC(O)C(C)(C)C5CCC43C)C2C1C (stereo not given) | > 200 µM | 14.8 µM | – |
| CC(=O)C(=Cc1ccc(Cl)cc1)C(C)=O | > 427 µM | 19.5 µM | – |
| Cn1c2ccccc2c(=O)c2c(O)cc3c(c21)C1OCC(C)(O)C1O3 (stereo not given) | > 200 µM | 33.9 µM | – |
| CCCCCCCCCCCCCCCCCCCCCCNc1ccn(C2CC(OP(=O)(O)OCC3OC(n4cc(C)c(=O)[nH]c4=O)CC3N=[N+]=[N-])C(COP(=O)(O)OCC3CCC(n4ccc(N)nc4=O)O3)O2)c(=O)n1 (stereo not given) | 0.234 µM | 38 µM | – |
| CCCCCCCCCCCC(=O)C1=C(O)C(O)CCC1=O (stereo not given) | – | – | inactive |
| N#Cc1c2c(c(Nc3ccc(Cl)cc3)n3c1nc1ccccc13)CCCC2 | > 200 µM | 11.5 µM | – |
| COc1ccc(OC)c2c1ccc1c(C)c3ccccc3c(C)c12 | > 200 µM | 35.5 µM | – |
| CC1(C)COC(c2ccc(C(F)(F)F)cc2C(O)c2ccc3ccccc3c2)=N1 (stereo not given) | – | – | inactive |
| CCOP(=O)(OCC)c1c(C(=O)OC)cc(=O)[nH]c1-c1ccc(C)cc1 | > 200 µM | 7.94 µM | – |
| OCCN(CCO)CCn1cnc2c(NCc3ccccc3)ncnc21 | > 200 µM | > 200 µM | – |
| CC1=Nc2ccccc2C1C(Cc1ccccc1N)c1c(C)[nH]c2ccccc12 (stereo not given) | – | – | inactive |
| Cc1ccc2c(c1C)C(=O)C1(C2)Cc2ccc3c(c2C1=O)CCC3 (stereo not given) | > 100 µM | > 100 µM | – |
| Cc1nc(C(=Nc2ccc(Br)cc2)Nn2cnnc2)no1 | > 200 µM | – | – |
| Fc1ccc(CN2COc3c(cc(Cl)c4cccnc34)C2)cc1 | > 200 µM | 0.977 µM | – |
| ClC1=C(Cl)C(Cl)(Cl)c2c3c(c4c(c21)C(Cl)(Cl)C(Cl)=C4Cl)C(Cl)(Cl)C(Cl)=C3Cl | > 8.71 µM | > 8.71 µM | – |
| CN(/N=C/C=N/N(C)C1=NCCCCN1)C1=NCCCCN1 | > 200 µM | > 200 µM | – |

| SMILES | EC50 | IC50 | outcome |
| --- | --- | --- | --- |
| NC(=O)C12CCC1C1CCCCC12N1CCOCC1 (stereo not given) | – | – | inactive |
| CNC(=S)N1CCN(C(C)=O)C1=S | > 200 µM | > 200 µM | – |
| CCC1(O)CC2CC(=O)OC2C1O (stereo not given) | > 200 µM | > 200 µM | – |
| O=C1C(c2ccccc2Cl)[C@H]2CC=C[C@H]2N1O (stereo not given in full) | – | – | inactive |
| Cc1nc(N)c(N2CCNCC2)c(=O)[nH]1 | > 200 µM | > 200 µM | – |
| c1ccc2c3nnc(c2c1)SCCCSc1nnc(c2ccccc12)SCCCS3 | > 200 µM | > 200 µM | – |
| CCN(CC)CC(C)(C)C(=O)/C=C/c1ccc(/C=C/C(=O)C(C)(C)CN(CC)CC)cc1 | – | – | inactive |
| COC(OC)(c1ccccc1)C(Br)Br | – | – | inactive |
| Cc1ccc(S(=O)(=O)Nn2c(C)cc3ccc(S(=O)(=O)Nc4ccccc4[N+](=O)[O-])cc3c2=O)cc1 | > 200 µM | 10.2 µM | – |
| NCCC=C(c1cc(Cl)c(O)c(C(=O)O)c1)c1cc(Cl)c(O)c(C(=O)O)c1 | 151 µM | > 200 µM | – |
| O=C1CSC(c2ccccc2)N1c1ccc(-c2ccc(-n3c(-c4ccccc4)nc4ccccc4c3=O)cc2)cc1 (stereo not given) | > 200 µM | 44.7 µM | – |
| CC1=C(C(=O)NCc2ccccc2)C(c2ccc(C3C(C(=O)NCc4ccccc4)=C(C)NC(C)=C3C(=O)NCc3ccccc3)cc2)C(C(=O)NCc2ccccc2)=C(C)N1 | > 12 µM | 7.94 µM | – |
| C/C(CC(=O)Nc1ccc(Cl)c(Cl)c1)=N/NC(=O)C[n+]1ccccc1 | > 162 µM | > 162 µM | – |
| O=C1Nc2ccccc2C12CCCC2 | – | – | inactive |
| CCN(CC)CCC(=O)c1ccc(Cl)cc1 | > 912 µM | 12.3 µM | – |
| CCOC(=O)C(=O)/C=C(\C)Nc1c(NC2OCC(OC(C)=O)C(OC(C)=O)C2OC(C)=O)nc(SC)[nH]c1=O (stereo not given) | > 87.1 µM | > 87.1 µM | – |
| CC1(C)CC(C)(Br)C(Br)C(=O)C1C(O)(C(F)(F)F)C(F)(F)F (stereo not given) | > 200 µM | 33.1 µM | – |
| O=C(O)c1ccc(NNc2cc(=O)[nH]c(=O)[nH]2)cc1 | > 200 µM | 107 µM | – |
| COc1cc(/C=C/C2=C(C#N)C(=O)OC2(C)C)ccc1O | > 126 µM | > 126 µM | – |
| NC(=O)C1=NOC(C(N)=O)C1C1OC(CO)C(O)C1O (stereo not given) | > 200 µM | > 200 µM | – |
| c1cc2n[se]nc2cc1-c1ccc2n[se]nc2c1 | 155 µM | > 200 µM | – |
| C=C1c2c(C)coc2C(=O)c2c(O)cc(OC)c(C)c21 | – | – | inactive |
| COc1cc(\C=N/N=C/C=C/c2ccccc2)cc(OC)c1OC | – | – | inactive |
